The values that follow are results of earlier work, collected in patent US7563779B2, “L-ergothioneine, milk thistle, and S-adenosylmethionine for the prevention, treatment and repair of liver damage” (Nutramax Laboratories, priority 1998, dated 2009).

SMILES strings stand for the structures.

Data set [1] relates to liver lipid accumulation. The conditions noted are these: rats chronically intoxicated with ethanol.
Data set [2] has as its system liver nodules, pre-neoplastic lesions and hepatocellular carcinomas. The conditions noted are these: administration of SAMe.
Data set [3] has as its system lipid peroxidation in liver tissue. The conditions noted are these: exogenous L-ergothioneine, liver tissue of rats.
Data set [4] concerns lipid peroxide formation in mouse liver homogenate. Particulars: FIG. 5.

Take `C[S+](CC[C@H](N)C(=O)O)C[C@H]1O[C@@H](n2cnc3c(N)ncnc32)[C@H](O)[C@@H]1O` (stereo partly drawn) [SAMe, S-adenosylmethionine]: the lipid accumulation result in data set [1] is listed as “decrease lipid accumulation”. Besides, in data set [2], the “amount of early reversible nodules” value is given as “fall in the amount of early reversible nodules”; the “development of late pre-neoplastic lesions and hepatocellular carcinomas” value was “prevention of the development of late pre-neoplastic lesions and hepatocellular carcinomas”.
As to `C[N+](C)(C)[C@@H](Cc1c[nH]c(=S)[nH]1)C(=O)[O-]` [L-ergothioneine], the “lipid peroxidation by toxic compounds” value in data set [3] was “prevent lipid peroxidation”. In data set [4], the LPO formation entry is “inhibited LPO formation” and the “decomposition of existing LPO” value is reported as “enhanced the decomposition of existing LPO”.
